From patent US6913878B2, “Method of detecting DNA single strand breaks” (The University of North Carolina at Chapel Hill, priority 2003, dated 2005)

How the values were obtained:
[1] = test system: PARP-1+/+ immortalized embryonic fibroblasts; assay: Intracellular NAD(P)H assay (WST-8) in PARP-1+/+ fibroblasts; format: cell-based, mouse; conditions: PARP-1+/+ cells, MMS 4 hours (FIG. 4A)
Protocol: (§1) XRCC1-proficient and -deficient CHO cells (Taylor, et al. (2002) Mol. Cell. Biol. 22:2556-2563) were cultured as monolayers in alpha-minimal essential medium (INVITROGEN™, Carlsbad, Calif.) supplemented with 10% fetal bovine serum (Sigma-Aldrich, St. Louis, Mo.), 100 μg/mL penicillin, and 100 μg/mL streptomycin. Immortalized mouse embryonic fibroblasts derived from PART-1^+/+ and PARP-1^−/− were maintained in Dulbecco's modified Eagle's medium, 4.5 g/Liter glucose medium (INVITROGEN™, Carlsbad, Calif.) supplemented with 10% fetal bovine serum and 0.5% gentamicin (Schreiber, et al. (2002) J. Biol. Chem. 277:23028-23036). […]
(§2) A water-soluble tetrazolium salt was used to measure the amount of intracellular NAD(P)H through the reduction to a formazan dye. The total amount of NAD(P)H within viable cells in the medium was determined periodically by a spectrophotometer. […] WST-8 produced a water-soluble yellow-colored formazan dye through its bioreduction either in the presence of an electron carrier, such as 1-Methoxy PMS, Diaphorase, a flavoenzyme, or directly by NAD(P)H. Therefore, the reduction of tetrazolium salts predominantly depends on the amount of intracellular NAD(P)H. The amount of formazan dye produced by the living cells in the medium was determined approximately every 30 minutes by a spectrophotometer and compared to the values of the control. […]

[2] = test system: EM9-V cells; assay: Intracellular NAD(P)H assay using XTT or MTS; format: cell-based, Chinese hamster
Protocol: (§3) XTT^1) (2,3-bis[2-Methoxy-4-nitro-5-sulfophenyl]-2H-tetrazolium-5-carboxy-anilide inner salt) and MTS^2) (3-(4,5-dimethylthiazol-2-yl)-5-(3-carboxynethoxyphenyl)-2-(4-sulfophenyl)-2H-tetrazolium, inner salt), water-soluble tetrazolium salts, were used to measure the amount of intracellular NAD(P)H through the reduction to a water-soluble formazan dye. EM9-V and XH5 cells were seeded into 96-well plates and were cultured in 100 μL of medium with fetal bovine serum and antibiotics as described (10,000 cells per well). After a 30-minute incubation, cells were treated with DMS (dimethylsulfate) at indicated concentrations and 1/10 volume of either XTT with an electron coupling agents such as phenazine methosulfate (Sigma) or MTS with phenazine methosulfate (Promega). Cells in each well were further cultured for up to 4 hours. Either XTT or MTS produced a water-soluble yellow-colored formazan dye and the absorbance was recorded in a 96-well plate reader at 450 nm with a 650 nm reference filter.
(§4) These cells were exposed to DMS at different concentrations for 2.5 or 4 hours. […] In addition, CHO cells were co-exposed to DMS and PARP inhibitor, 3-aminobenzamide (10 mM) and were applied 1 to 2 hours prior to the DMS treatment and kept in the medium during DMS exposure until the cells were analyzed.

[3] = test system: EM9-V cells (XRCC1-deficient CHO EM9 cells expressing empty vector); assay: Intracellular NAD(P)H assay with water-soluble tetrazolium salt WST-8 (CCK-8); format: cell-based, Chinese hamster
Protocol: (§5) XRCC1-proficient and -deficient CHO cells (Taylor, et al. (2002) Mol. Cell. Biol. 22:2556-2563) were cultured as monolayers in alpha-minimal essential medium (INVITROGEN™, Carlsbad, Calif.) supplemented with 10% fetal bovine serum (Sigma-Aldrich, St. Louis, Mo.), 100 μg/mL penicillin, and 100 μg/mL streptomycin. Immortalized mouse embryonic fibroblasts derived from PART-1^+/+ and PARP-1^−/− were maintained in Dulbecco's modified Eagle's medium, 4.5 g/Liter glucose medium (INVITROGEN™, Carlsbad, Calif.) supplemented with 10% fetal bovine serum and 0.5% gentamicin (Schreiber, et al. (2002) J. Biol. Chem. 277:23028-23036). Human lymphoblastoid cells (GM15030, GM15061, GM15237, GM15268, GM15339, GM15349, GM15365, and GM15380; Coriell Cell Repositories, Camden, N.J.) were grown in RPMI 1640 medium (INVITROGEN™, Carlsbad, Calif.) supplemented with 15% fetal bovine serum (Sigma-Aldrich, St. Louis, Mo.), 100 μg/mL penicillin, and 100 μg/mL streptomycin. The cells were maintained in a humidified atmosphere of 5% CO2 and 95% air at 37° C.
(§6) A water-soluble tetrazolium salt was used to measure the amount of intracellular NAD(P)H through the reduction to a formazan dye. The total amount of NAD(P)H within viable cells in the medium was determined periodically by a spectrophotometer. Cells were seeded into 96-well plates (CHO cells and mouse fibroblasts: 5×10^3 cells/well; lymphoblastoid cells: 15×10^3 cells/well) and were cultured in 100 μL of medium with fetal bovine serum and antibiotics as described. After a 30-minute incubation, cells were treated with MMS at indicated concentrations and 1/10 volume of CCK-8 solution (Dojindo Molecular Technology, Gaithersburg, Md.) which consisted of a water-soluble 2-(2-methoxy-4-nitrophenyl)-3-(4-nitrophenyl)-5-(2,4-disulfophenyl)-2H-tetrazolium monosodium salt (WST-8; 5 mM) and 1-Methoxy-5-methylphenazinium methylsulfate (1-Methoyx PMS; 0.2 mM) as an electron mediator. Cells in each well were further cultured for up to 4 hours. WST-8 produced a water-soluble yellow-colored formazan dye through its bioreduction either in the presence of an electron carrier, such as 1-Methoxy PMS, Diaphorase, a flavoenzyme, or directly by NAD(P)H. Therefore, the reduction of tetrazolium salts predominantly depends on the amount of intracellular NAD(P)H. The amount of formazan dye produced by the living cells in the medium was determined approximately every 30 minutes by a spectrophotometer and compared to the values of the control. Absorbance was recorded in a 96-well plate reader at 450 nm with a 650 nm reference filter. A medium blank was prepared with only medium and CCK-8 reaction solution. Decreases in the intracellular NAD(P)H were assessed by comparing the absorbance of a well containing cells treated with MMS against that of a well with cells treated with phosphate-buffered saline (PBS) only.
(§7) XRCC1 functions as a scaffold for interaction with other base excision repair-associated proteins including human AP endonuclease (APE1), DNA Pol-β, DNA Ligase III, Polynucleotide Kinase (PNK), and PARP-1 (Caldecott, et al. (1996) Nucl. Acids Res. 24:4387-4394; Whitehouse, et al. (2001) Cell 104:1-11; Kubota, et al. (1996) EMBO J. 15:6662-6670; Caldecott, et al. (1994) Mol. Cell. Biol. 14:68-76; Caldecott, et al. (1995) Nucl. Acids Res. 23:4836-4843) and is required for efficient single strand break repair and genetic stability in mammalian cells. Rodent cells lacking XRCC1 are hypersensitive to DNA damaging agents (Whitehouse, et al. (2001) Cell 104:1-11; Kubota, et al. (1996) EMBO J. 15:6662-6670; Caldecott, et al. (1994) Mol. Cell. Biol. 14:68-76). […]

[4] = test system: EM9-XH5 cells (CHO EM9 cells expressing wild-type human XRCC1); assay: as above; format: cell-based, Chinese hamster
Protocol: as §5, §6, §7

[5] = test system: EM9-XH5 cells; assay: Intracellular NAD(P)H assay using XTT or MTS; format: cell-based, Chinese hamster; conditions: DMS 4 hours (XTT) or 2.5 hours (MTS) (FIG. 7A, B)
Protocol: as §3, §4

[6] = test system: EM9-V and EM9-XH5 CHO cells; assay: Trypan blue dye-exclusion assay (cell death); format: cell-based, Chinese hamster; conditions: MMS 0, 0.75, 1.5 mM for 1 and 4 hours; any concentration
Protocol: Cell death was determined with trypan blue staining. Cells were treated with MMS at 0, 0.75, and 1.5 mM for 1 and 4 hours. After trypsinization, cells were stained using a standard trypan blue dye-exclusion assay.

[7] = test system: PARP-1-/- immortalized embryonic fibroblasts; assay: Intracellular NAD(P)H assay (WST-8) in PARP-1-/- fibroblasts; format: cell-based, mouse; conditions: PARP-1-/- cells, MMS 4 hours, compared with PARP-1+/+ cells (FIG. 4B)
Protocol: as §1, §2

[8] = test system: Human lymphoblastoid cells (GM15030, GM15061, GM15237, GM15268, GM15339, GM15349, GM15365, GM15380); assay: Intracellular NAD(P)H assay (WST-8) in lymphoblastoid cells; format: cell-based; conditions: eight healthy individuals, MMS 4 hours (FIG. 6A)
Protocol: as §1, §2

[9] = test system: EM9-V cells; format: cell-based, Chinese hamster; conditions: immediately after 1 hour MMS treatment (FIG. 5D)
Protocol: A direct comparison was conducted between the method of the invention measuring NAD(P)H and the Comet assay for the detection of single strand breaks. Slides for the Comet assay were prepared using well-known methods (Tennant, et al. (2001) Mutat. Res. 493:1-10). Briefly, slides were dipped into agarose and dried at 60° C. Low melting point agarose (0.5%) was prepared and held at 42° C. Cell suspensions (1×10^4 cells/10 μL) were mixed with 190 μL low melting point agarose. Ninety μL of this suspension was pipetted onto each of two slides and covered with a coverglass. Each slides was placed on ice for 5 minutes, the coverglass was removed, 90 μL of low melting point agarose was pipetted onto each slide, a coverglass was reapplied, and slides were returned to the ice. After 5 minutes, the coverglass was removed and the slides were placed in lysis buffer (pH 11) containing 2.5 M NaCl, 100 mM EDTA-2Na, 10 mM Tris, 1% Na Sarcosinate, 1% TRITON® X-100 and 10% dimethylsulfoxide for 20 minutes. Following lysis, the slides were placed in denaturation buffer (i.e., electrophoresis buffer; 300 mM NaOH, 1 mM EDTA, pH 13). […]
Slides were stained using 35 μL of SYBR GREEN-1™ (MOLECULAR PROBES™, Eugene, Oreg.)(10× in Tris-EDTA buffer pH 8.0) and a coverglass was applied. […] Fifty cells from each of two slides were analyzed by a independent scorer who had no knowledge of the treatment. […]

With `NC(=O)c1cccc(N)c1` [3-AB, 3-aminobenzamide] the “protection from reduction in NAD(P)H upon exposure to MMS” value ([1]; 3-AB 10 mM) was “protected”, the “block of DMS-induced decrease in intracellular NAD(P)H” value ([2]; 3-AB 10 mM applied 1 to 2 hours before and during DMS, XTT 4 hours or MTS 2.5 hours (FIG. 7A, B)) was “completely blocked” and the “block of MMS-induced decrease in intracellular NAD(P)H” value ([3]; EM9-V cells, 3-AB 10 mM applied 1 to 2 hours before and during MMS, 4 hours (FIG. 3A)) was “almost completely blocked”. For the same compound, the “block of MMS-induced decrease in intracellular NAD(P)H” value ([4]; 3-AB 10 mM applied 1 to 2 hours before and during MMS, 4 hours (FIG. 3A)) was “almost completely blocked”.
With `COS(=O)(=O)OC` [DMS, dimethylsulfate] the “intracellular NAD(P)H significantly reduced by treatment with DMS” value [5] was “not” and the “intracellular NAD(P)H significantly reduced by treatment with DMS” value ([2]; DMS 4 hours (XTT) or 2.5 hours (MTS), dose-dependent (FIG. 7A, B)) was “significantly reduced”.
For `O=C1NCCc2c(OCCCCN3CCCCC3)cccc21` [DPQ, 3,4-dihydro-5-[4-(1-piperidinyl)butoxy]-1(2H)-isoquinolinone], the “block of MMS-induced decrease in intracellular NAD(P)H” value ([3]; EM9-V cells, DPQ 90 μM applied 1 to 2 hours before and during MMS, 4 hours (FIG. 3B)) was “almost completely blocked” and the “block of MMS-induced decrease in intracellular NAD(P)H” value ([4]; DPQ 90 μM applied 1 to 2 hours before and during MMS, 4 hours (FIG. 3B)) was “almost completely blocked”.
With `COS(C)(=O)=O` [MMS, methyl methanesulfonate] the “cell death (trypan blue exclusion) during MMS treatment” value [6] was “no major cell death”, the “NAD(P)H on exposure to MMS” value [7] was “more resistant to the decrease in NAD(P)H” and the “NAD(P)H on exposure to MMS” value [1] was “reduced NAD(P)H”. The “sensitivity to MMS (NAD(P)H depletion) among lymphoblastoid cell lines” value [8] was “wide variation in the sensitivity”, the “intracellular NAD(P)H on treatment with MMS” value ([3]; EM9-V cells, MMS at different concentrations for 4 hours, dose-dependent (FIG. 2A)) was “significantly reduced” and the “lowest MMS concentration at which decrease in intracellular NAD(P)H was detected” value ([3]; EM9-V cells, at 1, 2 and 4 hours (FIG. 5A-C)) was ~10 µM. The “earliest time at which reduction of NAD(P)H was detected during MMS exposure” value ([3]; EM9-V cells, real-time assay, read about every 30 minutes (FIG. 2B)) was 30 min, the “time for ratio of NAD(P)H in EM9-V versus EM9-XH5 cells to reach a plateau” value ([3]; as a function of exposure time with MMS (FIG. 2C)) was ≤ 1 h and the “intracellular NAD(P)H on treatment with MMS” value ([4]; MMS at different concentrations for 4 hours, dose-dependent (FIG. 2A)) was “significantly reduced”. The “MMS concentration at which increase in tail moment was detected (Comet assay)” value [9] was ~50 µM.
